Measured values as given in patent US12178846B2, “Methods of using gap junctions as therapeutic targets for the treatment of degenerative disorders of the retina” (The Research Foundation for The State University of New York, priority 2014, dated 2024).
“Also recorded” adds a separate entry of the source.

Columns and labels:
ischemic retina = test: Transient in vivo retinal ischemia-reperfusion (raised IOP), 7 days reperfusion; design: species or system mouse
Experimental: Various methods were employed to produce cell death. (1) Single cell apoptosis: CytC was injected into individual RGCs or Müller cells for 15 minutes after which retinas were incubated for 4 hours in oxygenated Ames medium before fixation. After streptavidin histology, apoptotic cells were detected with an anti-active caspase 3 antibody or with Terminal deoxynucleotidyl transferase dUTP nick end labeling (TUNEL) staining. (2) Excitotoxicity: To assess the contribution of GJs to cell death within populations of RGCs and amacrine cells we conducted parallel experiments in which retinas were preincubated for 20 minutes in normal Ames medium or in one containing the GJ blockers meclofenamic acid (MFA; 50 μM) or 18-beta-glycyrrhetinic acid (18Beta-GA; 25 μM). Both control and drug-treated retinas were then exposed for 1 hour to NMDA (100-300 μM) to induce excitotoxicity followed by 4 hours in the control Ames solution. (3) Retinal ischemia: Transient in vivo retinal ischemia was induced by introducing into the anterior chamber a 33-gauge needle attached to a saline-filled reservoir (0.9% sodium chloride) that was raised above the animal so as to increase intraocular pressure (IOP) to a level […]. MFA (2 μl, 500 μM) was administered intravitreally either 30 minutes before or 3 and 24 hours following the ischemic insult. The opposite eye was cannulated, but maintained at normal IOP to serve as a normotensive control. After 40-50 minutes, the needle was withdrawn and ischemia was evidenced by corneal whitening. After 7 days of reperfusion, mice were sacrificed and eyes were processed to assess retinal damage and neuronal death. We also employed oxygen-glucose deprivation (OGD) to induce in vitro ischemia, in which retina-eyecups or isolated retinal whole-mounts were exposed continuously to either a control, oxygenated Ringer solution, or one that was glucose-free and deoxygenated by bubbling extensively with 95% N2/5% CO2 at 34° C. Following 60 minutes in the OGD environment, retinas were transferred to a control, oxygenated Ames medium for 4 hours before processing to evaluate cell death. Apoptotic and necrotic cell death were assessed by cell counts following: (1) staining with Live/Death Viability Assay (calcein AM/ethidium homodimer (EthD) (Invitrogen); (2) TUNEL, or, (3) labeling for activated caspase 3. For population studies, dead cells were counted manually within 500×500 μm areas (5 areas per retina) from micrographs of whole-mounts using images acquired by confocal microscope. Nuclear cell counts were made per unit length (500 μm) of frozen retinal cross-sections labeled with propidium iodide (2 μg/ml). In some experiments, cells counts were limited to retrograde labeled RGCs in the GCL or certain subpopulation of amacrine cells, identified by specific markers, such as calretinin (CR), calbindin (CB) and choline acetyltransferase (ChAT) in the INL. Fluorescence intensity measures were made of glial fibrillary acidic protein (GFAP), which is overexpressed in Müller glial cells following retinal injury. Expression of GFAP and connexins were quantified by analysis of confocal images with Metavue software (Molecular Devices). Average pixel fluorescence intensities were measured by using uniform rectangular areas (3-5 per image) extending either from the GCL to the outer limiting membrane for GFAP or through the IPL for connexins. The intensity values were then averaged for at least 5 images from 3-5 independent experiments and data were normalized to controls.

GJs = test: Retrograde Neurobiotin labeling of amacrine cells coupled to RGCs; assay type: cell-based, mouse
Experimental: After experimental treatment, retinas were fixed with 4% paraformaldehyde in a 0.1 M phosphate buffer solution (PBS; pH 7.4) for 30 minutes at room temperature, cryoprotected in 30% sucrose, embedded in Tissue-Tek OCT Compound (Andwin Scientific) and frozen. Cryosections (18-20 μm thick) were cut and mounted on microscope slides. For immunostaining, sections were blocked in 3% donkey serum in 0.1M PBS supplemented with 0.5% Triton X-100, and 0.1% NaN3 for 1 h at room temperature. Primary antibodies were diluted in 0.1M PBS with 0.5% Triton X-100, 0.1% NaN3 and 1% donkey or goat serum. Tissues were then incubated with primary antibodies for 3 hours at room temperature or overnight at 4° C. The following primary antibodies were used: rabbit anti-calretinin 1:2000, rabbit anti-calbindin 1:1000, goat ant-ChAT 1:100 (all from Millipore), rabbit anti-GFAP 1:1000 (Invitrogen), rabbit anti-active caspase 3 1:200 (Abcam); mouse anti-Cx35/36 1:300, mouse anti-Cx45 1:300 (both from Millipore). After extensive washing with 0.1M PBS, tissues were incubated for 1 hour in secondary anti-goat/rabbit/mouse antibodies conjugated to Alexa-488 or Alexa-594 (1:200, Molecular Probes). Retinal sections were counterstained with the nuclear dye propidium iodide (PI, Molecular Probes). Neurobiotin was visualized with Alexa-488/594 conjugated streptavidin (Molecular Probes, 1:200). Tissues were then flat-mounted in Vectashield media (Vector Labs) and fluorescent images were taken using a fluorescent microscope or an Olympus FV1200 MPE confocal microscope.
We used retrograde labeling of RGCs with Neurobiotin to visualize populations of amacrine cells in the inner nuclear layer (INL) to which they were coupled. Globes with attached optic nerves were submersed in oxygenated Ames medium and a drop of Neurobiotin (4% in 0.1 M Tris buffer) was applied to the cut optic nerve for 40 minutes. For retrograde labeling limited to RGCs, Neurobiotin was replaced with Lucifer yellow (LY, 3%). […]

[1] = MFA 500 μM, 2 μl intravitreal 30 min before ischemic insult
[2] = MFA intravitreal 3 and 24 hours after transient ischemia, measured one week after insult, p<0.01
[3] = MFA, transient ischemia, p<0.001

## Cc1ccc(Cl)c(Nc2ccccc2C(=O)O)c1Cl [MFA, meclofenamic acid]
Ischemic retina; [1]
  cell counts in the GCL: preserved
  retinal thickness / retinal morphology: preserved; also recorded: prevented changes
Ischemic retina; [2]
  GFAP expression: maintenance of normal levels
  cell counts in the GCL: maintenance of normal levels; also recorded: significantly limit
  retinal thickness: maintenance of normal levels
Ischemic retina; MFA, ischemic retinas, p>0.1
  number of ChAT-positive ACs in the INL: no effect
Ischemic retina; [3]
  number of CB-immunoreactive ACs in the INL: prevented the loss; also recorded: largely prevented a reduction
  number of CR-immunoreactive ACs in the INL: prevented the loss
GJs; MFA application, p>0.1
  number of ChAT-positive ACs labeled with Neurobiotin: did not produce a significant reduction; also recorded: little effect
GJs; MFA prior to retrograde labeling, p<0.01
  Neurobiotin labeling of CR-positive ACs in the INL (coupling to RGCs): effectively eliminated all colocalized labeling; also recorded: significantly reduced
GJs; MFA-treated retinas vs control, p>0.1
  total number of CR-IR cells in the INL (per 500 μm section): comparable to that in control
